From patent publication US4980349A, “Sulphonamides derived from diarylmethanes, the processes for preparing them and pharmaceutical compositions containing them” (SANOFI, priority 1986, dated 1990) come the findings set out here.

In series [1] the test system is pain threshold of brewer's yeast inflamed rat hind foot. The experiment in a line: Randall and Sellitto's test (analgesic activity). The series is classed as in vivo. To be noted: first experiment, Table XII, read-out: percentage increase in the mean pain threshold; for change in vivo at 25 mg/kg: 25 mg/kg oral; for change in vivo at 50 mg/kg: 50 mg/kg oral; for change in vivo at 100 mg/kg: 100 mg/kg oral. A digest of the protocol: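 Rats had 0.1 ml 20% brewer's yeast suspension injected under the hind-foot plantar aponeurosis; compounds dosed orally by stomach tube 1 h before yeast. Pain threshold was the pressure eliciting foot withdrawal, read at the 4–6 h plateau; result is % increase in mean threshold versus untreated controls, 10 rats per group.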

Series [2] can be described thus: Oral LD50 in rats. To be noted: rat, in vivo, male Wistar rats, 200-400 g, 14 days observation, read-out: approximate oral LD50. On the procedure: (§1) The compounds were suspended in a 3% strength solution of gum arabic so as to supply, in a volume of 2 ml for the rats, the equivalent of 50, 100, 200, 400 and 800 mg/kg, and, in a volume of 1 ml for the mice, 100, 200, 400, 800 and 1,600 mg/kg and, for 1573 and 1579, 3,200 mg/kg.
(§2) Gavage was performed by means of a metal tube, on batches of 5 animals for each series.
(§3) The animals were observed daily for 14 days.

For series [3], the system named is rat hind foot kaolin-induced oedema. The series can be described thus: Kaolin-induced arthritis test, first experiment (decrease in inflammation, foot volume). The format is in vivo. Conditions: 1 h before kaolin, Table IX, read-out: percentage decrease in the inflammation; for change in vivo at 25 mg/kg: 25 mg/kg oral; for change in vivo at 50 mg/kg: 50 mg/kg oral; for change in vivo at 100 mg/kg: 100 mg/kg oral. The essentials: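 Kaolin (0.05 ml of sterile 10% suspension) injected into metatarsal flexor sheath of rat hind foot; compounds given orally by stomach tube 1 h before. Foot volume measured by plethysmometer during early oedema (maximal 4–6 h). Value is % decrease in inflammation versus controls, mean of 10 animals per dose.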

Series [4] deals with rat hind foot carragheenin-induced oedema. The series can be described thus: Carragheenin-induced oedema test. The series is classed as in vivo. Conditions: 3 h, first experiment, Table X, read-out: percentage inhibition of the inflammation; for change in vivo at 25 mg/kg: 25 mg/kg oral; for change in vivo at 50 mg/kg: 50 mg/kg oral; for change in vivo at 100 mg/kg: 100 mg/kg oral.

Series [5] is described as follows: Oral LD50 in mice. To be noted: mouse, in vivo, female Swiss CF mice, 20 g, 14 days observation, read-out: approximate oral LD50. Here is the method: as §1, §2, §3
Series [6] concerns foreign-body (sponge) granuloma in rats. The experiment in a line: Experimental granuloma induced by foreign body, histological study. To be noted: both doses (50 and 100 mg/kg) oral, 8 days; Table XI. The format is in vivo, Wistar rats.

Regarding `O=C(c1ccccc1)c1cc([N+](=O)[O-])ccc1S(=O)(=O)NCCCN1CCOCC1` [Compound 1361], the values for the change in vivo at 25 mg/kg in series [1], in series [3] and in series [4] were 20%, -25% and -15%, respectively. Also, the change in vivo at 50 mg/kg in series [1] was 25%; in series [3] it was -30%; in series [4], -25%. The change in vivo at 100 mg/kg in series [1] was 45%; in series [3], -48%; in series [4], -45%. Also, the LD50 at 336 h was more than 800 mg/kg in series [2] and more than 1600 mg/kg in series [5]. For the same molecule, the “histological study of the granuloma” value in series [6] is “anti-inflammatory activity is exhibited”.
Turning to `O=C(O)CCCNS(=O)(=O)c1ccc(Cl)cc1C(=O)c1ccccc1Cl` [Compound 1573], in series [1], the change in vivo at 25 mg/kg was determined as 20%, the change in vivo at 50 mg/kg came out at 35% and the change in vivo at 100 mg/kg stood at 60%. Moreover, in series [3], the change in vivo at 25 mg/kg is -15%, the change in vivo at 50 mg/kg is -30% and the change in vivo at 100 mg/kg was -52%. In addition, in series [4], the change in vivo at 25 mg/kg was -17%, the change in vivo at 50 mg/kg is -28% and the change in vivo at 100 mg/kg is -50%. Further, in series [5], the LD50 at 336 h was more than 3200 mg/kg. The “histological study of the granuloma” value in series [6] is listed as “the activity is very distinct”.

Usually LD50 stands for the dose at which mortality reaches 50%.
